Earlier results in patent US20160184299A1, “COMBINATION COMPOSITION COMPRISING OXYCODONE AND ACETAMINOPHEN FOR RAPID ONSET AND EXTENDED DURATION OF ANALGESIA” (MALLINCKRODT LLC, priority 2011, published 2016).

System: hepatic GSH
Details: mice, cited from earlier work

**Q.** Which “Time to onset of circulating hepatic GSH changes after administration” value (100 mg/kg to 600 mg/kg) does the source give for `CC(=O)Nc1ccc(O)cc1` [acetaminophen] here?
**A.** Its value is ≤ 15 min.

**Q.** What about the “Time of minimum GSH level after injection” value (all dose groups) of the same molecule?
**A.** Its value is 2 h.
